Key:
[1] = Acute toxicity in the mouse by the I.P. route; format: in vivo; conditions: in vivo, ip
Description: The acute toxicity was studied in the mouse by the I.P. route. It is expressed in the form of DL-50 (lethal dose involving the death of half of the animals) or DL-0 (maximum non-lethal dose).

[2] = Veinous thrombosis: veinous anti-thrombus activity; format: in vivo; conditions: Rattus norvegicus, ip, 50 mg/kg IP, 4 to 5 hours after administration, read-out: Diminution of veinous thrombus
[3] = Anti-hypoxic activity: survival to hypoxia (nitrogen-oxygen 95:5); format: in vivo, mouse (Swiss male); conditions: I.P., 1/10th of LD-50 or 100 mg/kg when LD-0 ≥ 800 mg/kg; up to 15 minutes; mouse
Procedure, shortened: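 Groups of 20 male Swiss mice (20–30 g) received compound i.p. at 1/10 LD-50, or 100 mg/kg when LD-0 ≥800 mg/kg, then were placed in nitrogen-oxygen 95:5 v/v. Survival time was recorded up to 15 min and expressed as % survival versus untreated controls; Duxil reference given at 18 mg/kg i.p.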

[4] = Veinous thrombosis: veinous anti-thrombus activity; format: in vivo; conditions: Rattus norvegicus, ip, 100 mg/kg I.P., 4 to 5 hours after administration, read-out: Diminution of veinous thrombus
Experimental: The technique used is similar to the one described by Peterson-Zucker in Thrombo.Diath.Haemorh. 23, 1, (1970).
An occlusive thrombus is created in the […] vena cava of a rat by the combined action of an endothelial alteration and a veinous stasis for 15 mins. and 4 to 5 hours after administration of the product to be tested (100 mg/kg I.P.).

[5] = system: blood platelet aggregation; test: Spontaneous aggregation: blood platelet anti-aggregation activity; format: in vivo, rat (adult male); conditions: Platelet, ip; 100 mg/kg I.P., t=5 hours, rat
Experimental: The technique used is that of Sanders described in Laboratory Animal Science 27 (No. 5), pages 757-761 (1977).
After administration at 100 mg/kg I.P. (unless specified to the contrary in Table V hereinbelow) of the product to be tested to adult male reproducing rats, two blood samples are taken, one on sodium citrate and the other on sodium citrate treated with formaldehyde at instant t=5 hours.
After centrifugation of the samples, a platelet count is made on the supernatant liquid. The spontaneous aggregation index according to Wu and Hook Stroke 6, 521-524 (1975) is expressed by the relation: [formula]

[6] = Anti-ulcer activity: ulcer caused by aspirin; format: in vivo, rat (male Wistar); conditions: 100 mg/kg I.P.; aspirin 192 mg/kg per os; standardised to control batch and cimetidine (index 1)
Procedure, shortened: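 Male Wistar rats weighing 180 to 200 g were fasted from t=0, when they received a first dose of the test product. At t=18 hours they were given 2 ml of an ulcer-forming suspension of aspirin at 192 mg/kg per os, followed by a second dose of the product. At t=22 hours the animals were sacrificed and their ulcers graded: 1 for small point-like, 3 for more extensive, 9 for highly extensive or very deep. Scores were standardised against a control batch and against cimetidine, the reference, assigned index 1.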

SMILES	LD50 ([1]; I.P., read-out: DL-50 (lethal dose involving the death of half of the animals)) [mg/kg]	inhibition in vivo at 50 mg/kg [2] [%]	Survival (survival percentage to hypoxic aggression) [3]	DL-0 (maximum non-lethal dose) [1] [mg/kg IP]	inhibition in vivo at 100 mg/kg [4] [%]	inhibition in vivo at 100 mg/kg [5] [%]	Ulcer index [6]
Cc1ccc(C(O)c2cccc(O[C@@H]3OC[C@@H](O)[C@H](O)[C@H]3O)c2)cc1 (single isomer, unassigned) [Example 106]	500	≥ 50	–	–	–	–	–
Cc1cc(C(=O)c2ccccc2Cl)cc(C)c1O[C@@H]1OC[C@@H](O)[C@H](O)[C@H]1O [Example 102]	–	–	+++ (higher than or equal to 80%)	> 800	30 to 49	≥ 40	0.49

Source: patent publication US4432973A, “Benzoyl- and α-hydroxybenzyl-phenyl-glycosides and application thereof in therapeutics” (Societe de Recherches Industrielles (S.O.R.I.), priority 1980, dated 1984)
